Measurements taken from the kinase profiling compilation of Christmann-Franck et al. (2016).

What was measured:
Experiment in all cases: KINOMEscan competition binding
MAP2K1 (human) = MAP2K1 (human) (UniProt Q02750); conditions: compound 1.0 µM
CSK (human) = CSK (human) (UniProt P41240); conditions: compound 1.0 µM
CRK2 (P.falciparum) = CRK2 (P.falciparum) (UniProt P61075); conditions: compound 1.0 µM
RPS6KB1 (human) = RPS6KB1 (human) (UniProt P23443); conditions: compound 1.0 µM
DYRK1B (human) = DYRK1B (human) (UniProt Q9Y463); conditions: compound 1.0 µM
SGK3 (human) = SGK3 (human) (UniProt Q96BR1); conditions: compound 1.0 µM
SGK3 (human), sequence (Q96BR1 whole entry, looked up): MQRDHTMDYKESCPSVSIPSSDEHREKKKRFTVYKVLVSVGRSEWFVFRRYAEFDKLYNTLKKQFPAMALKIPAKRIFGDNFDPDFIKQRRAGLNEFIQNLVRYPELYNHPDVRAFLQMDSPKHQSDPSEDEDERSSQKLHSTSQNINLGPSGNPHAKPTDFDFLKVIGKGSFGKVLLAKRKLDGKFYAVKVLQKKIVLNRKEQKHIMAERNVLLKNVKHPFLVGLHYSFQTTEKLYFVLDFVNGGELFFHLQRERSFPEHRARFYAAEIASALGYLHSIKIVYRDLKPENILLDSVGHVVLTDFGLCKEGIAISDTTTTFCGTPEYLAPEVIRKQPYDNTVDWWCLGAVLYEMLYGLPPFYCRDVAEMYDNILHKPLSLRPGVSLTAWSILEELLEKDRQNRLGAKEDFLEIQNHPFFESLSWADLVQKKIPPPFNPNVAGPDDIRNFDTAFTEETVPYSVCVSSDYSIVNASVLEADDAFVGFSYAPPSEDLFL

[1] = test system: EGFR (human), P00533 [L861Q]; conditions: compound 1.0 µM
EPHA6 (human) = EPHA6 (human) (UniProt Q9UF33); conditions: compound 1.0 µM
NEK7 (human) = NEK7 (human) (UniProt Q8TDX7); conditions: compound 1.0 µM
SRC (human) = SRC (human) (UniProt P12931); conditions: compound 1.0 µM
NEK11 (human) = NEK11 (human) (UniProt Q8NG66); conditions: compound 1.0 µM
TGFBR1 (human) = TGFBR1 (human) (UniProt P36897); conditions: compound 1.0 µM
CDK14 (human) = CDK14 (human) (UniProt O94921); conditions: compound 1.0 µM
CSNK1G1 (human) = CSNK1G1 (human) (UniProt Q9HCP0); conditions: compound 1.0 µM
CAMK1D (human) = CAMK1D (human) (UniProt Q8IU85); conditions: compound 1.0 µM
CAMK1D (human), sequence (Q8IU85 whole entry, looked up): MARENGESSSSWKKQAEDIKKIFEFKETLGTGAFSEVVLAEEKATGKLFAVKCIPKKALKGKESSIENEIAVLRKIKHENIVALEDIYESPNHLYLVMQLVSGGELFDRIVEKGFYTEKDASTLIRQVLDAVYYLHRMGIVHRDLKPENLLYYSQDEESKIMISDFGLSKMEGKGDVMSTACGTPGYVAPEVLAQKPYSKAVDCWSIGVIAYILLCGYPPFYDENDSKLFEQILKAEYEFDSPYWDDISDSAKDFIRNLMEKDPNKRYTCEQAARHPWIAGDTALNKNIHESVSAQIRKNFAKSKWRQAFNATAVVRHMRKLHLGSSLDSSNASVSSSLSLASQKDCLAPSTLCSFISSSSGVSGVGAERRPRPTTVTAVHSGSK

PKN1 (human) = PKN1 (human) (UniProt Q16512); conditions: compound 1.0 µM
CAMK2A (human) = CAMK2A (human) (UniProt Q9UQM7); conditions: compound 1.0 µM
YSK4 (human) = YSK4 (human) (UniProt Q56UN5)
YSK4 (human), sequence (Q56UN5 whole entry, looked up): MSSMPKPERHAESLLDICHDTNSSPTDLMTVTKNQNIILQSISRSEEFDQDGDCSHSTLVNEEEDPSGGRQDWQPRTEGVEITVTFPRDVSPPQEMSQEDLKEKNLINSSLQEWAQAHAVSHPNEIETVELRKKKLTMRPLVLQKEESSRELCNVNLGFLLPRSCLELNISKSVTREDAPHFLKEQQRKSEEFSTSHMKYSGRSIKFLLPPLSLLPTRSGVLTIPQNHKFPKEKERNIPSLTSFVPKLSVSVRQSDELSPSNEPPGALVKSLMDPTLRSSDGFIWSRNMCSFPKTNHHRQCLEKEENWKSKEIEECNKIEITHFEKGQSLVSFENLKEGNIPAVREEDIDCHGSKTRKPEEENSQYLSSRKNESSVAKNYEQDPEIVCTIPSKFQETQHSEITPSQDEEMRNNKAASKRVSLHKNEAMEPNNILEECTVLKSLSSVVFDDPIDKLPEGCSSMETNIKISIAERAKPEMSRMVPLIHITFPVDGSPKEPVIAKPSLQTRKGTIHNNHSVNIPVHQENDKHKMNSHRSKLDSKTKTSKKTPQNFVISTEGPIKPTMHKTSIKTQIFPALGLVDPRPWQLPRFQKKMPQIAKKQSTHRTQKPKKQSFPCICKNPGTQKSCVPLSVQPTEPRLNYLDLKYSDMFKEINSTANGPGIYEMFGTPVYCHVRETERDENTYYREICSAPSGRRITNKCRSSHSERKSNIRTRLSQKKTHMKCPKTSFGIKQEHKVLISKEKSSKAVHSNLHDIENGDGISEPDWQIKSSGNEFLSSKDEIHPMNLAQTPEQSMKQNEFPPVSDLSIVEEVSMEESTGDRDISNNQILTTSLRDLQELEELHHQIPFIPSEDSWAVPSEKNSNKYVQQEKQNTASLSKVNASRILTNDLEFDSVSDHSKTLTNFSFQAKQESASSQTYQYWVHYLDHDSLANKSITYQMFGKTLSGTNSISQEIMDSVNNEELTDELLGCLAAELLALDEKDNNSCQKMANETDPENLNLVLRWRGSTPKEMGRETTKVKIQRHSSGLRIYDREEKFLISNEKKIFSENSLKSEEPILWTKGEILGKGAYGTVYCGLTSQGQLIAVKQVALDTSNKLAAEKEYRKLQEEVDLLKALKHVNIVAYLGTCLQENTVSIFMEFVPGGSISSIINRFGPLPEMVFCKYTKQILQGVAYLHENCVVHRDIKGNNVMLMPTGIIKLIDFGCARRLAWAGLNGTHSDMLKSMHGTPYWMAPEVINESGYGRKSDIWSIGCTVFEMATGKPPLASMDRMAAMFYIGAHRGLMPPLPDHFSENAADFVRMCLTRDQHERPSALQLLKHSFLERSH

MAP4K2 (human) = MAP4K2 (human) (UniProt Q12851); conditions: compound 1.0 µM
FYN (human) = FYN (human) (UniProt P06241); conditions: compound 1.0 µM
CDK17 (human) = CDK17 (human) (UniProt Q00537); conditions: compound 1.0 µM
MAPK6 (human) = MAPK6 (human) (UniProt Q16659)
MAPK6 (human), sequence (Q16659 whole entry, looked up): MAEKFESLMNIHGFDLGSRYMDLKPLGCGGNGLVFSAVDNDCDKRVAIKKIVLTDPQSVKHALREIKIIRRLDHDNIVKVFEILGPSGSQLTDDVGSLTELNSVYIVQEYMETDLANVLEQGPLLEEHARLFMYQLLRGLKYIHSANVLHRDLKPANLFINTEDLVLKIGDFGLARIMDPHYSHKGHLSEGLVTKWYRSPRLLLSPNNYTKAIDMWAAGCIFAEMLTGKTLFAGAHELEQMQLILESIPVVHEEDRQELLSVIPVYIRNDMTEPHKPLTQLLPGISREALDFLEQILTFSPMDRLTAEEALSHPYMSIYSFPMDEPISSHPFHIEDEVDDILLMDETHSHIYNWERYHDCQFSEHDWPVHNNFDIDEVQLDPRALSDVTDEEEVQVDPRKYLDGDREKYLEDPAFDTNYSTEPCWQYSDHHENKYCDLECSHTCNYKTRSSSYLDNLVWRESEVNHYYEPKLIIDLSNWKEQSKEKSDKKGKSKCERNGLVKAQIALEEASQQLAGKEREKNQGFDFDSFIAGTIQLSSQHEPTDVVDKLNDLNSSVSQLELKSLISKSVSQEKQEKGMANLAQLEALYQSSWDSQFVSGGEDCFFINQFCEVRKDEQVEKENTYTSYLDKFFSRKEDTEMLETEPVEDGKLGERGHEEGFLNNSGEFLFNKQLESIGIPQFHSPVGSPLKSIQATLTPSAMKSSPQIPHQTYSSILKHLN

[2] = test system: EGFR (human), P00533 [T790M]; conditions: compound 1.0 µM
PLK2 (human) = PLK2 (human) (UniProt Q9NYY3); conditions: compound 1.0 µM
TLK1 (human) = TLK1 (human) (UniProt Q9UKI8); conditions: compound 1.0 µM
OXSR1 (human) = OXSR1 (human) (UniProt O95747); conditions: compound 1.0 µM
OXSR1 (human), sequence (O95747 whole entry, looked up): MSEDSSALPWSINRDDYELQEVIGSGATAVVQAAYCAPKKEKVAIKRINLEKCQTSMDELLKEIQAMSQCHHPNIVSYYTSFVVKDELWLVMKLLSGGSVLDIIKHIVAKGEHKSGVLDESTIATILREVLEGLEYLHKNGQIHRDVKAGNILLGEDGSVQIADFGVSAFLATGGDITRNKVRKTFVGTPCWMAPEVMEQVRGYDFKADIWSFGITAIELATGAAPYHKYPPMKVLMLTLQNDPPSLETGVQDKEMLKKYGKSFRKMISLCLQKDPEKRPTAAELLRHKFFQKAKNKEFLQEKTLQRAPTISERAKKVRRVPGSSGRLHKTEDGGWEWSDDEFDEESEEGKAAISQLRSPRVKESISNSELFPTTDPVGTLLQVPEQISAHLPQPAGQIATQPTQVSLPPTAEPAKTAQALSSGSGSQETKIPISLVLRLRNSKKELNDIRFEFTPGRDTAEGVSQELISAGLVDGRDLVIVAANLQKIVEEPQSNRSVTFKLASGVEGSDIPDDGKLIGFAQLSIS

ROCK1 (human) = ROCK1 (human) (UniProt Q13464); conditions: compound 1.0 µM
BRSK1 (human) = BRSK1 (human) (UniProt Q8TDC3); conditions: compound 1.0 µM
EPHA3 (human) = EPHA3 (human) (UniProt P29320); conditions: compound 1.0 µM
FRK (human) = FRK (human) (UniProt P42685); conditions: compound 1.0 µM
CSNK1E (human) = CSNK1E (human) (UniProt P49674); conditions: compound 1.0 µM
NEK1 (human) = NEK1 (human) (UniProt Q96PY6); conditions: compound 1.0 µM
PRKX (human) = PRKX (human) (UniProt P51817); conditions: compound 1.0 µM
PRKX (human), sequence (P51817 whole entry, looked up): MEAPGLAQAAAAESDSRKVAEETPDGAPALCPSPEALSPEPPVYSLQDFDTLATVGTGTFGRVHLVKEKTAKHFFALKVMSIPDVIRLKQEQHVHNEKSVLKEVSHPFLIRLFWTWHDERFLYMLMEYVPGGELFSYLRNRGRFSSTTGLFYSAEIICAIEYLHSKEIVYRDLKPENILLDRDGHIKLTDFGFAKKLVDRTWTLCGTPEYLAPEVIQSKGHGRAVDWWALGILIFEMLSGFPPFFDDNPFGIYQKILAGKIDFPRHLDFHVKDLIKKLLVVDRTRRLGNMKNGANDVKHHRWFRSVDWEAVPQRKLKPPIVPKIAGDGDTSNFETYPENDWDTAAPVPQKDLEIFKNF

ACVRL1 (human) = ACVRL1 (human) (UniProt P37023); conditions: compound 1.0 µM
MAP3K11 (human) = MAP3K11 (human) (UniProt Q16584); conditions: compound 1.0 µM
MAP3K11 (human), sequence (Q16584 whole entry, looked up): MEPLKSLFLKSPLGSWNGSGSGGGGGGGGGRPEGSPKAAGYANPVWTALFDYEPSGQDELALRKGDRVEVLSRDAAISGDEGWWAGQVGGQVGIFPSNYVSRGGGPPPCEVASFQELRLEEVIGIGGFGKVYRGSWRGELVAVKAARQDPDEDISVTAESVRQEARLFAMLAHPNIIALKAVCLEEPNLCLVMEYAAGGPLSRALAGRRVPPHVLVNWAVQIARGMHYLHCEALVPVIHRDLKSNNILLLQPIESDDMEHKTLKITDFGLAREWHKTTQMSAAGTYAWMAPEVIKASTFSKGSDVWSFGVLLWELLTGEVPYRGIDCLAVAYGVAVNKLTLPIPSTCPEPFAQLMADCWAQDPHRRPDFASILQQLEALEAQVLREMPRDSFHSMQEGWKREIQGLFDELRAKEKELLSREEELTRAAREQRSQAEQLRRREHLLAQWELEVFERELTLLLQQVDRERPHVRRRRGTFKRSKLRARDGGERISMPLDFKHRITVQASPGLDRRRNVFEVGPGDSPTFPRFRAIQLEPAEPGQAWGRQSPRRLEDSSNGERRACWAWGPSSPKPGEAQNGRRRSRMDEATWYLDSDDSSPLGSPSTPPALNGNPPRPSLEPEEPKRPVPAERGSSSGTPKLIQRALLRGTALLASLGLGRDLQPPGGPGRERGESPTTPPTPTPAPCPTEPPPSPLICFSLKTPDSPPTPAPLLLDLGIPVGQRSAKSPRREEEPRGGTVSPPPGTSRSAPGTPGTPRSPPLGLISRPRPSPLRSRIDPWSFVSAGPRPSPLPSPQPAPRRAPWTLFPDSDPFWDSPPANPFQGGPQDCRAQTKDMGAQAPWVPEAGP

[3] = test system: EIF2AK4 KD2 (human), Q9P2K8 [S808G]; conditions: compound 1.0 µM
GSK3B (human) = GSK3B (human) (UniProt P49841); conditions: compound 1.0 µM
HCK (human) = HCK (human) (UniProt P08631); conditions: compound 1.0 µM
MAPK14 (human) = MAPK14 (human) (UniProt Q16539); conditions: compound 1.0 µM
NEK4 (human) = NEK4 (human) (UniProt P51957); conditions: compound 1.0 µM
HIPK1 (human) = HIPK1 (human) (UniProt Q86Z02); conditions: compound 1.0 µM
ERBB2 (human) = ERBB2 (human) (UniProt P04626); conditions: compound 1.0 µM
LYN (human) = LYN (human) (UniProt P07948); conditions: compound 1.0 µM

CRK2 (P.falciparum), sequence (P61075 whole entry, looked up): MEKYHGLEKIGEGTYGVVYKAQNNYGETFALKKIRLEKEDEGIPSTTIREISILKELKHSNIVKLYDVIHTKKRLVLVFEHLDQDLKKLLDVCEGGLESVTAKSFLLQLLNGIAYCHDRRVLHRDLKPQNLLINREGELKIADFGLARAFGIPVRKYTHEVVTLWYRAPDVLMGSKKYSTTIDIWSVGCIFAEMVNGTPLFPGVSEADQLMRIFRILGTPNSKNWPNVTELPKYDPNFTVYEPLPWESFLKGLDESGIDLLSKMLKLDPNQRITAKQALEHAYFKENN

CN(C)C/C=C/C(=O)Nc1cccc(C(=O)Nc2ccc(Nc3nccc(-c4cccnc4)n3)cc2)c1
kinase still bound, per cent of control (MAP2K1 (human)): 46% | kinase still bound, per cent of control (CSK (human)): 97% | kinase still bound, per cent of control (CRK2 (P.falciparum)): 100% | kinase still bound, per cent of control (RPS6KB1 (human)): 68% | kinase still bound, per cent of control (DYRK1B (human)): 52% | kinase still bound, per cent of control (SGK3 (human)): 100% | kinase still bound, per cent of control [1]: 84% | kinase still bound, per cent of control (EPHA6 (human)): 95% | kinase still bound, per cent of control (NEK7 (human)): 7% | kinase still bound, per cent of control (SRC (human)): 88% | kinase still bound, per cent of control (NEK11 (human)): 86% | kinase still bound, per cent of control (TGFBR1 (human)): 86% | kinase still bound, per cent of control (CDK14 (human)): 53% | kinase still bound, per cent of control (CSNK1G1 (human)): 69% | kinase still bound, per cent of control (CAMK1D (human)): 100% | kinase still bound, per cent of control (PKN1 (human)): 100% | kinase still bound, per cent of control (CAMK2A (human)): 100% | Kd (YSK4 (human)): 0.0048 µM | kinase still bound, per cent of control (YSK4 (human); compound 1.0 µM): 0.1% | kinase still bound, per cent of control (MAP4K2 (human)): 9.9% | kinase still bound, per cent of control (FYN (human)): 90% | kinase still bound, per cent of control (CDK17 (human)): 84% | Kd (MAPK6 (human)): 0.022 µM | kinase still bound, per cent of control (MAPK6 (human); compound 1.0 µM): 0.4% | kinase still bound, per cent of control [2]: 91% | kinase still bound, per cent of control (PLK2 (human)): 74% | kinase still bound, per cent of control (TLK1 (human)): 92% | kinase still bound, per cent of control (OXSR1 (human)): 96% | kinase still bound, per cent of control (ROCK1 (human)): 22% | kinase still bound, per cent of control (BRSK1 (human)): 85% | kinase still bound, per cent of control (EPHA3 (human)): 80% | kinase still bound, per cent of control (FRK (human)): 90% | kinase still bound, per cent of control (CSNK1E (human)): 6.8% | kinase still bound, per cent of control (NEK1 (human)): 77% | kinase still bound, per cent of control (PRKX (human)): 96% | kinase still bound, per cent of control (ACVRL1 (human)): 100% | kinase still bound, per cent of control (MAP3K11 (human)): 67% | kinase still bound, per cent of control [3]: 80% | kinase still bound, per cent of control (GSK3B (human)): 78% | kinase still bound, per cent of control (HCK (human)): 100% | kinase still bound, per cent of control (MAPK14 (human)): 83% | kinase still bound, per cent of control (NEK4 (human)): 83% | kinase still bound, per cent of control (HIPK1 (human)): 3.6% | kinase still bound, per cent of control (ERBB2 (human)): 92% | kinase still bound, per cent of control (LYN (human)): 86%
